Holding throughout (assay type): cell-based
The test system of one test is Col1a1. Description: Col1a1 expression by RT-PCR in NIH3T3 cells. The settings on record: 10 μM, 50 μM or 1000 μM peptide, 24 hours, vs untreated group. As for the experimental part: In this example, the aim was to confirm the effect of the peptide according to an example on improving endogenous skin aging, including improvement of wrinkles and enhancement of elasticity, etc., by evaluating the expression levels of collagen type 1 (Col1a1), fibronectin, elastin, and hyaluronic acid, which are known components of the dermis.
Specifically, NIH3T3 cells were seeded in a 6-well plate at a density of 3×10^5 cells/well and cultured for 24 hours. Next, the cells were washed once with serum-free DMEM media, and 10 μM, 50 μM or 1000 μM of a peptide consisting of an amino acid sequence of SEQ ID NO: 1 was dispensed into 1 mL of the serum-free media, and cultured in a CO2 incubator at 37° C. for 24 hours. Next, the culture was washed twice with PBS, and RNA was isolated from the culture using easy blue (iNtRON, Cat. No.: 17061, Korea). Next, using an RT kit (Enzynomics, Cat. NO.: RT200, Korea), the isolated RNA was reverse transcribed to synthesize the respective cDNA. Next, using the synthesized 1 ug cDNA, primers for Colla1, fibronectin, or elastin, and a PCR kit (Enzynomics, Cat. No.: P581T, Korea), polymerase chain reaction (PCR) was performed. […]

Another test relates to sirtuin-1 (SIRT-1). Put plainly: SIRT-1 expression by RT-PCR in HaCaT cells. The settings on record: 10 μM, 50 μM or 1000 μM peptide, 24 hours. As for the experimental part: In this example, the aim was to confirm the effect of the peptides according to an example on strengthening the skin barrier, by evaluating the expression levels of sirtuin-1 (SIRT-1) or aquaporin-3 (AQP3).
Specifically, HaCaT cells were seeded in a 6-well plate at a density of 3×10^5 cells/well and cultured for 24 hours. Next, the cells were washed once with serum-free DMEM media, and 10 μM, 50 μM or 1000 μM of the peptide consisting of the amino acid sequence of SEQ ID NO: 1 was dispensed into 1 mL of the serum-free media, and cultured in a CO2 incubator at 37° C. for 24 hours. Next, the culture was washed twice with PBS, and RNA was isolated from the culture using easy blue (iNtRON, Cat. No.: 17061, Korea). Next, using an RT kit (Enzynomics, Cat. NO.: RT200, Korea), the isolated RNA was reverse transcribed to synthesize the respective cDNA. Next, using the synthesized 1 ug cDNA, primers for SIRT-1 or AQP3, and a PCR kit (Enzynomics, Cat. No.: P581T, Korea), polymerase chain reaction (PCR) was performed. Meanwhile, in this example, an untreated group was used as the control group, and a group to which EGF was added was used as a positive control group, the nucleotide sequences of the primers used in this example are shown in Table 3 below.

Test [1] relates to reactive oxygen species in HaCaT cells. Description: Reactive oxygen species increased by ultraviolet rays in HaCaT cells (DCF-DA, flow cytometry). As for the experimental part: In this example, the aim was to confirm the effect of the peptide according to an embodiment on the antioxidant effect in damaged skin, by evaluating the change in the level of reactive oxygen species in skin cells increased by ultraviolet irradiation.
Specifically, NIH3T3 cells or HaCaT cells were seeded in a 6-well plate at a density of 5×10^5 cells/well and cultured for 24 hours. Next, the cells were washed once with serum-free DMEM media, and 10 μM, 50 μM or 1000 μM of the peptide consisting of the amino acid sequence of SEQ ID NO: 1 was dispensed into 1 mL of the serum-free media, and cultured in a CO2 incubator at 37° C. for 1 hour. Next, the above culture was transferred to an e-tube, mixed with 1 ml of PBS, and dispensed into a well plate. Next, using a UV irradiator (VILBER LOURMAT, Cat No.: 3102-BSU, France), 6 J/cm^2 ultraviolet rays were irradiated to NIH3T3 cells, and 15 mJ/cm^2 ultraviolet rays were irradiated to HaCaT cells. Next, the PBS in the well plate was removed, 900 μL of the culture medium in which the peptides were dispensed was added, and the plate was cultured in a CO2 incubator at 37° C. for 24 hours. The culture was then treated with DCFG-DA (2′,7′-dichlorofluorescin diacetate), wrapped in foil, and cultured in a CO2 incubator at 37° C. for 30 minutes. Next, the culture was washed twice with PBS and treated with 500 μL of 1× trypsin/EDTA to acquired cells, which were then centrifuged. After washing the centrifuged cells with PBS, FL1 fluorescence values were measured through flow cytometry (FACS, BD, USA). […]
In this example, the aim was to compare in more detail, the effect of peptides according to an embodiment on the antioxidant effect in damaged skin cells. To this end, the peptide consisting of the amino acid sequence of SEQ ID NO: 2, 3, or 4 having a sequence similar to the peptide according to an embodiment was set as a comparison group, and the level of reactive oxygen species in skin cells increased by ultraviolet irradiation of HaCaT cells was evaluated and compared in the same manner as in Example 4-1. […]

In the case of GPRGDP [SEQ ID NO: 1], the “expression of Col1a1” value in the test on Col1a1 was “increased”. For the same substance, the “expression of skin barrier factor SIRT-1” value with sirtuin-1 (SIRT-1) is reported as “increases”. In test [1] (HaCaT cells, vs peptides of SEQ ID NO: 2, 3, or 4 (50 μM, 100 μM)), the “reactive oxygen species reducing effect compared to the comparison group” value was “superior”. Further, the “level of reactive oxygen species increased by ultraviolet irradiation” value in test [1] (keratinocytes (HaCaT), 15 mJ/cm^2 UV, 10 μM, 50 μM or 1000 μM peptide, 24 hours) was “reduced”. In test [1] (keratinocytes (HaCaT), comparison experiment, FIG. 11), the “level of reactive oxygen species increased by ultraviolet irradiation (Example 4-2)” value is given as “reduced”.
